In ChEMBL document CHEMBL3804804, “Synthesis and antimycobacterial activity of N-(2-aminopurin-6-yl) and N-(purin-6-yl) amino acids and dipeptides” (Bioorg Med Chem Lett, 2016) one finds MIC and selectivity ratio data, which are given here for ten molecules.

Data set [1] has as its system Mycobacterium tuberculosis. Nature of the data set: Antimycobacterial activity against multidrug-resistant Mycobacterium tuberculosis harbouring Beijing genotype with combination of mutations of Ser 53-Leu 315 and Ser-Thr in rpoB and katG genes after 10 days by micro broth dilution method. Type of data set: functional.
A short description of data set [2]: Selectivity index, ratio of IC50 for human FEH cells to MIC for multidrug-resistant Mycobacterium tuberculosis. It counts as toxicity, cell-based.

The structures appear in SMILES notation. Bounds are passed on as bounds.

Turning to `CC(=O)Nc1nc(NCC(=O)O)c2nc[nH]c2n1`, the MIC in data set [1] amounted to 0.7 µg/mL.

Consider `CC1COc2c(N3CCN(C)CC3)c(F)cc3c(=O)c(C(=O)O)cn1c23` (configuration not stated) [OFLOXACIN], for which, in data set [1], the MIC stood at 0.1 µg/mL.

Regarding `COC(=O)CNc1nc(N)nc2[nH]cnc12.Cl.Cl`, in data set [1], the MIC worked out at 6.25 µg/mL.

Regarding `COC(=O)[C@H](Cc1ccccc1)NC(=O)CNc1ncnc2[nH]cnc12`, the MIC in data set [1] came out at 1.5 µg/mL.

As for `O.O=C(O)CC[C@H](NC(=O)CNc1ncnc2[nH]cnc12)C(=O)O`, the MIC in data set [1] amounted to 0.7 µg/mL. Moreover, in data set [2], the selectivity ratio was more than 25.

Consider `CSCC[C@H](NC(=O)CNc1nc(N)nc2[nH]cnc12)C(=O)O.O`, for which, in data set [1], the MIC worked out at 3.1 µg/mL.

Regarding `Nc1nc(NCC(=O)N[C@@H](CCC(=O)O)C(=O)O)c2nc[nH]c2n1`, the minimum inhibitory concentration (MIC) in data set [1] was determined as 0.7 µg/mL. Also, the selectivity ratio in data set [2] is more than 25.

With `CC(=O)Nc1nc(N2CCC[C@H]2C(=O)OC(C)(C)C)c2nc[nH]c2n1`, the MIC in data set [1] came out at 6.25 µg/mL.

As to `CC(C)[C@H](Nc1nc(N)nc2[nH]cnc12)C(=O)O`, the MIC in data set [1] was found to be 6.25 µg/mL.

As to `COC(=O)[C@H](CCSC)NC(=O)CNc1nc(NC(C)=O)nc2[nH]cnc12`, the MIC in data set [1] was determined as 3.1 µg/mL.

Broadly, the MIC is the lowest concentration found to suppress growth.
